Experimental data taken from US5444056A, “Aminoalkoxyphenyl derivatives, process for their preparation and compositions containing them” (Sanofi, priority 1989, dated 1995).
Structures can show the parent of a compound that is named as a salt.

Experiments:
[1] = system: contractile response to potassium-induced depolarization on isolated rat aorta; assay: Calcium inhibitory properties: antagonism of contractile response to potassium-induced depolarization on isolated rat aorta; set-up: species or system rat (male Wistar); conditions: percent of maximal contraction before incubation, 60 min
Text: It is well established that the depolarization of a smooth muscle membrane by potassium makes the latter permeable to extracellular calcium and induces muscle contraction. Consequently, the measurement of inhibition of the contractile response to depolarization by potassium or the measurement of relaxation of the tonic contraction on potassium depolarization can provide an evaluation of the potency of a compound as an inhibitor of the membrane permeability to Ca^++ ions. The technique used is the following: The aorta is removed from male Wistar rats weighing about 300 g and cut into strips approximately 40 mm long and 3 mm wide. These fragments are placed in a 25 ml isolated organ bath containing modified Krebs-bicarbonate solution (112 mM NaCL; 5 mM KCl; 25 mM NaHCO3; 1 mM KH2 PO4; 1.2 mM MgSO4; 2.5 mM CaCl2; 11.5 mM glucose, made up to 1000 ml with distilled water) maintained at 37° C. and through which a stream of carbon dioxide is passed. The preparation is connected to a force microsensor and the contractile response is recorded after amplification on a recorder. A tension of 2g is applied to the preparation. This latter is maintained in the modified Krebs-bicarbonate solution for 60 minutes, and then contractions are induced by replacing the Krebsbi-carbonate solution by a Krebs-potassium solution (17 mM NaCl; 100 mM KCl; 25 mM NaHCO3; 1 mM KH2 PO4; 1.2 mM MgSO4; 2.5 mM CaCl2; 11.5 mM glucose; made up to 1000 ml with distilled water). When the contractile response of the preparation has become reproducible, a given amount of the compound of the invention is introduced into the bath. Sixty minutes later a new spasm is induced by potassium depolarization. The results obtained on the aorta under investigation are then expressed in percent of the maximal contractional effect before incubation with the test substance. As examples, the following results were obtained, the compounds of formula (1) being in the form of the free base, the hydrochloride, oxalate or fumarate.

[2] = system: increase in blood pressure induced by epinephrine (anti-α effect); assay: Anti-α effect: reduction of epinephrine-induced increase in blood pressure in anesthetized atropinized dog; type: in vivo; set-up: key: +: for a reduction <50%; ++: for a reduction ≥50%; +++: for an almost complete reduction
Method: The aim of this test is to determine the capacity of the compounds of the invention to reduce the increase in blood pressure induced by epinephrine (anti-αeffect) and the acceleration of the heart rate induced by isoprenaline (anti-βeffect) in the dog previously anesthetized with pentobarbital and atropinized. First, are determined for each dog the dose of epinephrine (between 3 and 10 μg/kg) which causes a reproducible increase in arterial blood pressure of about 133.10^2 Pa and the dose of isoprenaline (1 to 2 μg/kg) which causes a reproducible increase in the heart rate of about 70 beats/minute. The doses of epinephrine and isoprenaline thus determined are injected alternatively every ten minutes and after the two consecutive reference responses have been obtained, a quantity of the test compound is administered by the intravenous route. The percentage reduction of the hypertension caused by the test compound in comparison with the reference hypertension previously obtained (about 100 mm Hg) is recorded. In both cases, the results of the reduction in arterial pressure and heart rate are expressed as follows: […]

Structure (SMILES) | % maximal contractional effect ([1]; 10^-8 M, 0.01 µM) | % maximal contractional effect ([1]; 10^-7 M, 0.1 µM) | % maximal contractional effect ([1]; 10^-9 M, 0.001 µM) | other results
CCCCN(CCCC)CCCOc1ccc(S(=O)(=O)c2c(C(C)C)cn3ccccc23)cc1 [B, reference compound] | 61% |  |  | Anti-α effect ([2]; intravenous, 0,5 mg/kg): ++ (for a reduction ≥50%)
COc1cc(OC)c(C(C)C)c(S(=O)(=O)c2ccc(OCCCN(C)CCc3ccc(OC)c(OC)c3)cc2)c1.O=C(O)C(=O)O [Ex.6, 4-[-3(N-methyl N-3,4-dimethoxy-β-phenethylamino)propox]phenyl (2-isopropyl 3,5-dimethoxy phenyl) sulfone oxalate] | 63,4% | 13,1% | 85,7% | 
CCCCc1oc2ccc([N+](=O)[O-])cc2c1S(=O)(=O)c1ccc(OCCCN(C)CCc2ccc(OC)c(OC)c2)cc1 [Ex. 1, 2-n-butyl 3-{4-[3-(N-methyl N-3,4-dimethoxy-β-phenethylamino)propoxy]benzenesulfonyl} 5-nitro benzofuran hydrochloride] |  | 70,1% |  | % maximal contractional effect ([1]; 10^-6 M, 1 µM): 45,4%; Anti-α effect ([2]; intravenous, 3,23 mg/kg): +++
CCCCc1oc2ccc(N)cc2c1S(=O)(=O)c1ccc(OCCCN(C)CCc2ccc(OC)c(OC)c2)cc1 [Ex. 3, 5-amino 3-{4-[3-(N-methyl N-3,4-dimethoxy-β-phenethylamino)propoxy]benzenesulfonyl} 2-n-butyl benzofuran dihydrochloride] |  |  |  | Anti-α effect ([2]; intravenous, 1,31 mg/kg): +++
CCCCc1oc2ccc(NS(C)(=O)=O)cc2c1S(=O)(=O)c1ccc(OCCCN(C)CCc2ccc(OC)c(OC)c2)cc1 [Ex. 4, 3-{4-[3-(N-methyl N-3,4-dimethoxy-β-phenethylamino)propoxy]benzenesulfonyl} 2-n-butyl 5-methane sulfonamido benzofuran hydrogen oxalate] |  | 92,7% |  | % maximal contractional effect ([1]; 10^-6 M, 1 µM): 49,9%
CCCCc1oc2ccc(Cl)cc2c1S(=O)(=O)c1cc(Br)c(OCCCN(C)CCc2ccc(OC)c(OC)c2)c(Br)c1 [Ex. 7, 5-chloro 2-n-butyl 3-{4-[3-(N-methyl N-3,4-dimethoxy-β-phenethylamino)propoxy] 3,5-dibromobenzenesulfonyl}benzofuran hydrogen oxalate] |  | 76,8% |  | % maximal contractional effect ([1]; 10^-6 M, 1 µM): 80,3%
COc1ccc2[nH]c(C)c(Sc3ccc(OCCCN(C)CCc4ccc(OC)c(OC)c4)cc3)c2c1 [Ex. 9, 3-{4-[3-(N-methyl N-3,4-dimethoxy-β-phenethylamino)propoxy]phenylthio} 5-methoxy 2-methyl indole hydrogen oxalate] | 84,4% | 70,4% | 88% | 
COc1ccc(CCN(C)CCCOc2ccc(S(=O)(=O)c3c(C(C)C)n(CCN(C)C)c4ccccc34)cc2)cc1OC [Ex. 11, 3-{4-[3-(N-methyl N-3,4-dimethoxy-β-phenethylamino)propoxy]benzenesulfonyl} 1-dimethylaminoethyl 2-isopropyl indole dioxalate] | 85,9% | 66,7% |  | Anti-α effect ([2]; intravenous, 1,6 mg/kg): ++ (for a reduction ≥50%)
CCN(CC)CCn1c(C(C)C)c(S(=O)(=O)c2ccc(OCCCN(C)CCc3ccc(OC)c(OC)c3)cc2)c2ccccc21 [Ex. 12, 3-{4-[3-(N-methyl N-3,4-dimethoxy-β-phenethylamino)propoxy]benzenesulfonyl} 1-diethylaminoethyl 2-isopropyl indole dioxalate] | 84,5% | 74,9% | 90,4% | 
COc1ccc(CCNCCCOc2ccc(S(=O)(=O)c3c(C(C)C)c(C)n4ccccc34)cc2)cc1OC [Ex. 14, 2-isopropyl 3-methyl 1-{4-[3-(N-3,4-dimethoxy-β-phenethylamino)propoxy]benzenesulfonyl}indolizine hydrogen oxalate] |  |  |  | Anti-α effect ([2]; intravenous, 0,12 mg/kg): +++
COc1ccc(CCN(C)CCCOc2ccc(S(=O)(=O)c3c(C(C)C)n(C)c4cc(C)ccc34)cc2)cc1OC [Ex. 45, 1-methyl 2-isopropyl 3-{4-[3-(N-methyl N-3,4-dimethoxy-β-phenethylamino)propoxy]benzenesulfony} 6-methyl indole hydrogen oxalate] | 75,2% | 15,7% | 83,2% | 
CCCCN(CCCC)CCCOc1ccc(S(=O)(=O)c2c(C(C)C)n(C)c3cc(C)ccc23)cc1.O=C(O)C(=O)O [Ex. 46, 1-methyl 2-isopropyl 3-{4-[3-(di-n-butylamino)propoxy]benzenesulfonyl} 6-methyl indole hydrogen oxalate] | 67,2% | 41,7% | 79,5% | 
CCCCN(CCCC)CCCOc1ccc(S(=O)(=O)c2c(C)nn3c(C)cccc23)cc1 [Ex. 48, 3-{4-[3-(di-n-butylamino)propoxy]benzenesulfonyl} 2,7 dimethyl pyrazolo[1,5-]pyridine hydrogen oxalate] | 77,1% |  | 85,7% | 
Cc1nn2cccc(C)c2c1S(=O)(=O)c1ccc(OCCCN(C)C2CCCc3ccccc32)cc1 (stereo not shown) [Ex. 51, 3-{4-[3-(N-methyl N-1,2,3,4-tetrahydronapth-1-ylamino)propoxy]benzenesulfonyl} 2,4-dimethyl pyrazolo[1,5-a]pyridine hydrogen oxalate] | 67,1% |  | 85% | 
COc1ccc(CCN(C)CCCOc2ccc([S+]([O-])c3c(C(C)C)c4cccc(C)c4n3C)cc2)cc1OC (stereo not drawn) [Ex. 57, (3-isopropyl 1,7-dimethylindol-2-yl)4-[3-(N-methyl N-3,4-dimethoxy-β-phenethylamino)propoxy]phenyl sulfoxide hydrogen oxalate] | 76,4% | 56,9% | 89,9% | 
COc1ccc(CCN(C)CCCOc2ccc(S(=O)(=O)c3c(C(C)C)c4cc(Cl)ccc4n3C)cc2)cc1OC [Ex. 59, 2-{4-[3-(N-methyl N-3,4-dimethoxy-β-phenethylamino)propoxy]benzenesulfonyl} 5-chloro 3-isopropyl 1-methyl indole] | 55,4% | 41,4% | 68,4% | % maximal contractional effect ([1]; 10^-10 M, 0.0001 µM): 81,5%
COc1ccc2c(c1)c(C(C)C)c(S(=O)(=O)c1ccc(OCCCN(C)CCc3ccc(OC)c(OC)c3)cc1)n2CCCN(C)CCc1ccc(OC)c(OC)c1 [Ex. 63, 2-{4-[3-(N-methyl N-3,4-dimethoxy-β-phenethylamino)propoxy]benzenesulfonyl} 1-[3-(N-methyl N-3,4-dimethoxy-β-phenethylamino)propyl] 3-isopropyl 5-methoxy indole oxalate] | 82,8% | 69,7% | 90,8% | 
CCc1nn2cccc(C)c2c1S(=O)(=O)c1ccc(OCCCN(C)CCc2ccc(OC)c(OC)c2)cc1 [Ex. 78, 3-{4-[3-(N-methyl N-3,4-dimethoxy-β-phenethylamino)propoxy]benezenesulfonyl} 2-ethyl 4-methyl pyrazolo[1,5-a]pyridine hydrogen oxalate] | 17,5% |  | 72,9% | % maximal contractional effect ([1]; 10^-10 M, 0.0001 µM): 78,6%
CCc1nn2cc(C)ccc2c1S(=O)(=O)c1ccc(OCCCN(C)CCc2ccc(OC)c(OC)c2)cc1 [Ex. 81, 3-{4-[3-(N-methyl N-3,4-dimethoxy-β-phenethylamino)propoxy]benzenesulfonyl} 2-ethyl 6-methyl pyrazolo[1,5-a]pyridine hydrogen oxalate] | 78,1% |  | 85,3% | % maximal contractional effect ([1]; 10^-10 M, 0.0001 µM): 91,4%
